Measured values: the NIST ThermoML archive (doi:10.1021/je049888n)
± gives the expanded uncertainty stated by the source.

Tests used:
[1] = xn = mol fraction of the nth substance listed

O [water] + C1CCNCC1
surface tension liquid-gas ([1]; 293.15 K, x2 = 0): 72.7 ± 1.8 mN/m
surface tension liquid-gas ([1]; 298.15 K, x2 = 0): 72.05 ± 1.8 mN/m
surface tension liquid-gas ([1]; 303.15 K, x2 = 0): 71.28 ± 1.8 mN/m
surface tension liquid-gas ([1]; 313.15 K, x2 = 0): 69.32 ± 1.8 mN/m
surface tension liquid-gas ([1]; 323.15 K, x2 = 0): 67.88 ± 1.7 mN/m

C1CCNCC1 [piperidine] + O
surface tension liquid-gas ([1]; 293.15 K, x1 = 0.0076): 57.25 ± 1.6 mN/m
surface tension liquid-gas ([1]; 293.15 K, x1 = 0.013): 43.84 ± 1.2 mN/m
surface tension liquid-gas ([1]; 293.15 K, x1 = 0.0228): 38.56 ± 1.1 mN/m
surface tension liquid-gas ([1]; 293.15 K, x1 = 0.0458): 37.78 ± 1 mN/m
surface tension liquid-gas ([1]; 293.15 K, x1 = 0.092): 35.44 ± 0.98 mN/m
surface tension liquid-gas ([1]; 293.15 K, x1 = 0.1542): 34.34 ± 0.95 mN/m
surface tension liquid-gas ([1]; 293.15 K, x1 = 0.2672): 33.9 ± 0.94 mN/m
surface tension liquid-gas ([1]; 293.15 K, x1 = 0.378): 33.27 ± 0.93 mN/m
surface tension liquid-gas ([1]; 293.15 K, x1 = 0.5657): 31.38 ± 0.89 mN/m
surface tension liquid-gas ([1]; 293.15 K, x1 = 0.7524): 31.02 ± 0.88 mN/m
surface tension liquid-gas ([1]; 293.15 K, x1 = 1): 30.11 ± 0.86 mN/m
surface tension liquid-gas ([1]; 298.15 K, x1 = 0.0076): 56.85 ± 1.5 mN/m
surface tension liquid-gas ([1]; 298.15 K, x1 = 0.013): 43.58 ± 1.2 mN/m
surface tension liquid-gas ([1]; 298.15 K, x1 = 0.0228): 38.27 ± 1 mN/m
surface tension liquid-gas ([1]; 298.15 K, x1 = 0.0458): 37.2 ± 1 mN/m
surface tension liquid-gas ([1]; 298.15 K, x1 = 0.092): 34.99 ± 0.97 mN/m
surface tension liquid-gas ([1]; 298.15 K, x1 = 0.1542): 34.02 ± 0.95 mN/m
surface tension liquid-gas ([1]; 298.15 K, x1 = 0.2672): 33.39 ± 0.93 mN/m
surface tension liquid-gas ([1]; 298.15 K, x1 = 0.378): 32.75 ± 0.92 mN/m
surface tension liquid-gas ([1]; 298.15 K, x1 = 0.5657): 31.15 ± 0.88 mN/m
surface tension liquid-gas ([1]; 298.15 K, x1 = 0.7524): 30.42 ± 0.86 mN/m
surface tension liquid-gas ([1]; 298.15 K, x1 = 1): 29.56 ± 0.85 mN/m
surface tension liquid-gas ([1]; 303.15 K, x1 = 0.0076): 56.45 ± 1.5 mN/m
surface tension liquid-gas ([1]; 303.15 K, x1 = 0.013): 43.32 ± 1.2 mN/m
surface tension liquid-gas ([1]; 303.15 K, x1 = 0.0228): 37.98 ± 1 mN/m
surface tension liquid-gas ([1]; 303.15 K, x1 = 0.0458): 36.62 ± 1 mN/m
surface tension liquid-gas ([1]; 303.15 K, x1 = 0.092): 34.54 ± 0.96 mN/m
surface tension liquid-gas ([1]; 303.15 K, x1 = 0.1542): 33.7 ± 0.94 mN/m
surface tension liquid-gas ([1]; 303.15 K, x1 = 0.2672): 32.88 ± 0.92 mN/m
surface tension liquid-gas ([1]; 303.15 K, x1 = 0.378): 32.23 ± 0.9 mN/m
surface tension liquid-gas ([1]; 303.15 K, x1 = 0.5657): 30.92 ± 0.88 mN/m
surface tension liquid-gas ([1]; 303.15 K, x1 = 0.7524): 29.82 ± 0.85 mN/m
surface tension liquid-gas ([1]; 303.15 K, x1 = 1): 29.09 ± 0.83 mN/m
surface tension liquid-gas ([1]; 313.15 K, x1 = 0.0076): 55.56 ± 1.5 mN/m
surface tension liquid-gas ([1]; 313.15 K, x1 = 0.013): 41.58 ± 1.1 mN/m
surface tension liquid-gas ([1]; 313.15 K, x1 = 0.0228): 37.43 ± 1 mN/m
surface tension liquid-gas ([1]; 313.15 K, x1 = 0.0458): 35.76 ± 0.99 mN/m
surface tension liquid-gas ([1]; 313.15 K, x1 = 0.092): 33.69 ± 0.94 mN/m
surface tension liquid-gas ([1]; 313.15 K, x1 = 0.1542): 32.67 ± 0.91 mN/m
surface tension liquid-gas ([1]; 313.15 K, x1 = 0.2672): 32.1 ± 0.9 mN/m
surface tension liquid-gas ([1]; 313.15 K, x1 = 0.378): 31.42 ± 0.89 mN/m
surface tension liquid-gas ([1]; 313.15 K, x1 = 0.5657): 30.01 ± 0.85 mN/m
surface tension liquid-gas ([1]; 313.15 K, x1 = 0.7524): 29.01 ± 0.83 mN/m
surface tension liquid-gas ([1]; 313.15 K, x1 = 1): 27.9 ± 0.81 mN/m
surface tension liquid-gas ([1]; 323.15 K, x1 = 0.0076): 54.62 ± 1.5 mN/m
surface tension liquid-gas ([1]; 323.15 K, x1 = 0.013): 41.41 ± 1.1 mN/m
surface tension liquid-gas ([1]; 323.15 K, x1 = 0.0228): 37.18 ± 1 mN/m
surface tension liquid-gas ([1]; 323.15 K, x1 = 0.0458): 34.37 ± 0.95 mN/m
surface tension liquid-gas ([1]; 323.15 K, x1 = 0.092): 32.61 ± 0.91 mN/m
surface tension liquid-gas ([1]; 323.15 K, x1 = 0.1542): 31.8 ± 0.89 mN/m
surface tension liquid-gas ([1]; 323.15 K, x1 = 0.2672): 31.26 ± 0.88 mN/m
surface tension liquid-gas ([1]; 323.15 K, x1 = 0.378): 30.4 ± 0.86 mN/m
surface tension liquid-gas ([1]; 323.15 K, x1 = 0.5657): 29.2 ± 0.83 mN/m
surface tension liquid-gas ([1]; 323.15 K, x1 = 0.7524): 28.1 ± 0.81 mN/m
surface tension liquid-gas ([1]; 323.15 K, x1 = 1): 27 ± 0.79 mN/m

C1CCNC1 [pyrrolidine] + O
surface tension liquid-gas ([1]; 293.15 K, x1 = 0.0156): 55.61 ± 1.5 mN/m
surface tension liquid-gas ([1]; 293.15 K, x1 = 0.0564): 46.07 ± 1.2 mN/m
surface tension liquid-gas ([1]; 293.15 K, x1 = 0.1082): 41.7 ± 1.1 mN/m
surface tension liquid-gas ([1]; 293.15 K, x1 = 0.1792): 39.7 ± 1.1 mN/m
surface tension liquid-gas ([1]; 293.15 K, x1 = 0.3039): 37.53 ± 1 mN/m
surface tension liquid-gas ([1]; 293.15 K, x1 = 0.4212): 35.97 ± 0.99 mN/m
surface tension liquid-gas ([1]; 293.15 K, x1 = 0.5219): 34.87 ± 0.97 mN/m
surface tension liquid-gas ([1]; 293.15 K, x1 = 0.6093): 33.89 ± 0.95 mN/m
surface tension liquid-gas ([1]; 293.15 K, x1 = 0.6858): 32.99 ± 0.93 mN/m
surface tension liquid-gas ([1]; 293.15 K, x1 = 0.7844): 32.1 ± 0.91 mN/m
surface tension liquid-gas ([1]; 293.15 K, x1 = 0.9161): 31.07 ± 0.89 mN/m
surface tension liquid-gas ([1]; 293.15 K, x1 = 1): 30.27 ± 0.87 mN/m
surface tension liquid-gas ([1]; 298.15 K, x1 = 0.0156): 55.32 ± 1.4 mN/m
surface tension liquid-gas ([1]; 298.15 K, x1 = 0.0564): 45.61 ± 1.2 mN/m
surface tension liquid-gas ([1]; 298.15 K, x1 = 0.1082): 41.19 ± 1.1 mN/m
surface tension liquid-gas ([1]; 298.15 K, x1 = 0.1792): 39.74 ± 1.1 mN/m
surface tension liquid-gas ([1]; 298.15 K, x1 = 0.3039): 37.09 ± 1 mN/m
surface tension liquid-gas ([1]; 298.15 K, x1 = 0.4212): 35.45 ± 0.98 mN/m
surface tension liquid-gas ([1]; 298.15 K, x1 = 0.5219): 34.4 ± 0.96 mN/m
surface tension liquid-gas ([1]; 298.15 K, x1 = 0.6093): 33.54 ± 0.94 mN/m
surface tension liquid-gas ([1]; 298.15 K, x1 = 0.6858): 32.59 ± 0.92 mN/m
surface tension liquid-gas ([1]; 298.15 K, x1 = 0.7844): 31.45 ± 0.89 mN/m
surface tension liquid-gas ([1]; 298.15 K, x1 = 0.9161): 30.42 ± 0.87 mN/m
surface tension liquid-gas ([1]; 298.15 K, x1 = 1): 29.75 ± 0.86 mN/m
surface tension liquid-gas ([1]; 303.15 K, x1 = 0.0156): 54.98 ± 1.4 mN/m
surface tension liquid-gas ([1]; 303.15 K, x1 = 0.0564): 45.21 ± 1.2 mN/m
surface tension liquid-gas ([1]; 303.15 K, x1 = 0.1082): 40.92 ± 1.1 mN/m
surface tension liquid-gas ([1]; 303.15 K, x1 = 0.1792): 39 ± 1.1 mN/m
surface tension liquid-gas ([1]; 303.15 K, x1 = 0.3039): 36.69 ± 1 mN/m
surface tension liquid-gas ([1]; 303.15 K, x1 = 0.4212): 35.11 ± 0.97 mN/m
surface tension liquid-gas ([1]; 303.15 K, x1 = 0.5219): 33.99 ± 0.95 mN/m
surface tension liquid-gas ([1]; 303.15 K, x1 = 0.6093): 33.07 ± 0.93 mN/m
surface tension liquid-gas ([1]; 303.15 K, x1 = 0.6858): 32.39 ± 0.92 mN/m
surface tension liquid-gas ([1]; 303.15 K, x1 = 0.7844): 31.3 ± 0.89 mN/m
surface tension liquid-gas ([1]; 303.15 K, x1 = 0.9161): 30.13 ± 0.87 mN/m
surface tension liquid-gas ([1]; 303.15 K, x1 = 1): 29.02 ± 0.84 mN/m
surface tension liquid-gas ([1]; 313.15 K, x1 = 0.0156): 54.1 ± 1.4 mN/m
surface tension liquid-gas ([1]; 313.15 K, x1 = 0.0564): 44.76 ± 1.2 mN/m
surface tension liquid-gas ([1]; 313.15 K, x1 = 0.1082): 40.19 ± 1.1 mN/m
surface tension liquid-gas ([1]; 313.15 K, x1 = 0.1792): 38.01 ± 1 mN/m
surface tension liquid-gas ([1]; 313.15 K, x1 = 0.3039): 35.68 ± 0.99 mN/m
surface tension liquid-gas ([1]; 313.15 K, x1 = 0.4212): 34.44 ± 0.96 mN/m
surface tension liquid-gas ([1]; 313.15 K, x1 = 0.5219): 32.97 ± 0.93 mN/m
surface tension liquid-gas ([1]; 313.15 K, x1 = 0.6093): 31.95 ± 0.9 mN/m
surface tension liquid-gas ([1]; 313.15 K, x1 = 0.6858): 31.11 ± 0.89 mN/m
surface tension liquid-gas ([1]; 313.15 K, x1 = 0.7844): 30.4 ± 0.87 mN/m
surface tension liquid-gas ([1]; 313.15 K, x1 = 0.9161): 29.02 ± 0.84 mN/m
surface tension liquid-gas ([1]; 313.15 K, x1 = 1): 27.87 ± 0.81 mN/m
surface tension liquid-gas ([1]; 323.15 K, x1 = 0.0156): 53.26 ± 1.4 mN/m
surface tension liquid-gas ([1]; 323.15 K, x1 = 0.0564): 43.89 ± 1.2 mN/m
surface tension liquid-gas ([1]; 323.15 K, x1 = 0.1082): 39.17 ± 1.1 mN/m
surface tension liquid-gas ([1]; 323.15 K, x1 = 0.1792): 37.3 ± 1 mN/m
surface tension liquid-gas ([1]; 323.15 K, x1 = 0.3039): 34.74 ± 0.96 mN/m
surface tension liquid-gas ([1]; 323.15 K, x1 = 0.4212): 33.15 ± 0.93 mN/m
surface tension liquid-gas ([1]; 323.15 K, x1 = 0.5219): 32.07 ± 0.9 mN/m
surface tension liquid-gas ([1]; 323.15 K, x1 = 0.6093): 31.05 ± 0.88 mN/m
surface tension liquid-gas ([1]; 323.15 K, x1 = 0.6858): 30.25 ± 0.86 mN/m
surface tension liquid-gas ([1]; 323.15 K, x1 = 0.7844): 29.2 ± 0.84 mN/m
surface tension liquid-gas ([1]; 323.15 K, x1 = 0.9161): 27.83 ± 0.81 mN/m
surface tension liquid-gas ([1]; 323.15 K, x1 = 1): 26.75 ± 0.79 mN/m

O [water] + C1CCNC1
surface tension liquid-gas ([1]; 293.15 K, x2 = 0): 72.7 ± 1.8 mN/m
surface tension liquid-gas ([1]; 298.15 K, x2 = 0): 72.05 ± 1.8 mN/m
surface tension liquid-gas ([1]; 303.15 K, x2 = 0): 71.28 ± 1.8 mN/m
surface tension liquid-gas ([1]; 313.15 K, x2 = 0): 69.32 ± 1.8 mN/m
surface tension liquid-gas ([1]; 323.15 K, x2 = 0): 67.88 ± 1.7 mN/m

C1CCNCC1 [piperidine]
surface tension liquid-gas (293.15 K): 30.11 ± 0.86 mN/m
surface tension liquid-gas (298.15 K): 29.56 ± 0.85 mN/m
surface tension liquid-gas (303.15 K): 29.09 ± 0.83 mN/m
surface tension liquid-gas (313.15 K): 27.9 ± 0.81 mN/m
surface tension liquid-gas (323.15 K): 27 ± 0.79 mN/m

C1CCNC1 [pyrrolidine]
surface tension liquid-gas (293.15 K): 30.27 ± 0.87 mN/m
surface tension liquid-gas (298.15 K): 29.75 ± 0.86 mN/m
surface tension liquid-gas (303.15 K): 29.02 ± 0.84 mN/m
surface tension liquid-gas (313.15 K): 27.87 ± 0.81 mN/m
surface tension liquid-gas (323.15 K): 26.75 ± 0.79 mN/m
